In the NIST ThermoML archive (doi:10.1021/je700546r):
Where “and” joins values, the source holds several entries; their conditions need not be identical. Equal values may be shown once.

Experiment: molar heat capacity at saturation pressure
Conditions: Crystal 3, Small (less than 1 g) adiabatic calorimetry

ON=C1CCCCC1 [cyclohexanone oxime]
Conditions | molar heat capacity
4.9 K | 0.339 J/K/mol
5.136 K | 0.3967 J/K/mol
5.378 K | 0.4649 J/K/mol
5.624 K | 0.5419 J/K/mol
5.878 K | 0.6278 J/K/mol
6.165 K | 0.7333 J/K/mol
6.485 K | 0.8621 J/K/mol
6.812 K | 1.006 J/K/mol
7.147 K | 1.167 J/K/mol
7.488 K | 1.338 J/K/mol
7.836 K | 1.53 J/K/mol
8.187 K | 1.735 J/K/mol
8.542 K | 1.956 J/K/mol
8.902 K | 2.19 J/K/mol
9.268 K | 2.438 J/K/mol
9.636 K | 2.708 J/K/mol
10 K | 2.981 J/K/mol
10.48 K | 3.361 J/K/mol
11.06 K | 3.83 J/K/mol
11.64 K | 4.325 J/K/mol
12.23 K | 4.854 J/K/mol
12.83 K | 5.408 J/K/mol
13.43 K | 5.992 J/K/mol
14.03 K | 6.572 J/K/mol
14.64 K | 7.153 J/K/mol
15.26 K | 7.796 J/K/mol
15.98 K | 8.601 J/K/mol
16.81 K | 9.497 J/K/mol
17.65 K | 10.37 J/K/mol
18.49 K | 11.28 J/K/mol
19.34 K | 12.18 J/K/mol
20.19 K | 13.08 J/K/mol
21.32 K | 14.35 J/K/mol
22.74 K | 15.89 J/K/mol
24.16 K | 17.46 J/K/mol
25.59 K | 19 J/K/mol
27.02 K | 20.5 J/K/mol
28.49 K | 22 J/K/mol
30.12 K | 23.63 J/K/mol
31.73 K | 25.22 J/K/mol
33.5 K | 26.88 J/K/mol
35.28 K | 28.48 J/K/mol
37.06 K | 30.01 J/K/mol
38.84 K | 31.47 J/K/mol
40.63 K | 32.89 J/K/mol
42.51 K | 34.38 J/K/mol
44.49 K | 35.9 J/K/mol
46.48 K | 37.34 J/K/mol
48.47 K | 38.76 J/K/mol
50.46 K | 40.11 J/K/mol
52.45 K | 41.42 J/K/mol
54.45 K | 42.64 J/K/mol
56.45 K | 43.84 J/K/mol
58.46 K | 45.02 J/K/mol
60.47 K | 46.16 J/K/mol
62.48 K | 47.28 J/K/mol
64.5 K | 48.37 J/K/mol
66.51 K | 49.44 J/K/mol
68.52 K | 50.51 J/K/mol
70.54 K | 51.55 J/K/mol
72.56 K | 52.59 J/K/mol
74.59 K | 53.59 J/K/mol
76.61 K | 54.6 J/K/mol
78.65 K | 55.6 J/K/mol
79.94 K | 56.26 J/K/mol
80.68 K | 56.58 J/K/mol
81.67 K | 57.04 J/K/mol
82.2 K | 57.24 J/K/mol
82.71 K | 57.54 J/K/mol
83.39 K | 57.84 J/K/mol
84.24 K | 58.2 J/K/mol
84.75 K | 58.47 J/K/mol
85.1 K | 58.59 J/K/mol
86.15 K | 59.05 J/K/mol
86.83 K | 59.4 J/K/mol
88.07 K | 59.96 J/K/mol
88.55 K | 60.2 J/K/mol
90 K | 60.85 J/K/mol
90.28 K | 61.01 J/K/mol
91.95 K | 61.75 J/K/mol
92.01 K | 61.8 J/K/mol
93.75 K | 62.62 J/K/mol
93.89 K | 62.67 J/K/mol
95.49 K | 63.42 J/K/mol
95.85 K | 63.56 J/K/mol
97.23 K | 64.21 J/K/mol
97.81 K | 64.45 J/K/mol
98.97 K | 65.03 J/K/mol
99.77 K | 65.37 J/K/mol
100.72 K | 65.83 J/K/mol
101.74 K | 66.25 J/K/mol
102.52 K | 66.6 J/K/mol
103.72 K | 67.14 J/K/mol
104.37 K | 67.44 J/K/mol
105.7 K | 68.04 J/K/mol
106.23 K | 68.29 J/K/mol
107.69 K | 68.92 J/K/mol
108.09 K | 69.08 J/K/mol
109.68 K | 69.81 J/K/mol
109.95 K | 69.92 J/K/mol
111.68 K | 70.69 J/K/mol
111.81 K | 70.76 J/K/mol
113.68 K | 71.57 J/K/mol and 71.56 J/K/mol
115.55 K | 72.37 J/K/mol
115.69 K | 72.45 J/K/mol
117.41 K | 73.2 J/K/mol
117.7 K | 73.35 J/K/mol
119.29 K | 74.03 J/K/mol
119.71 K | 74.22 J/K/mol
121.16 K | 74.85 J/K/mol
121.72 K | 75.08 J/K/mol
123.03 K | 75.63 J/K/mol
123.73 K | 75.98 J/K/mol
124.91 K | 76.46 J/K/mol
125.75 K | 76.86 J/K/mol
126.79 K | 77.29 J/K/mol
127.76 K | 77.72 J/K/mol
128.67 K | 78.11 J/K/mol
129.79 K | 78.6 J/K/mol
130.55 K | 78.91 J/K/mol
131.81 K | 79.49 J/K/mol
132.43 K | 79.75 J/K/mol
133.83 K | 80.38 J/K/mol
134.31 K | 80.58 J/K/mol
135.86 K | 81.28 J/K/mol
136.2 K | 81.42 J/K/mol
137.88 K | 82.16 J/K/mol
138.09 K | 82.25 J/K/mol
139.9 K | 83.05 J/K/mol
139.98 K | 83.08 J/K/mol
141.87 K | 83.93 J/K/mol
141.92 K | 83.95 J/K/mol
143.76 K | 84.77 J/K/mol
143.95 K | 84.85 J/K/mol
145.65 K | 85.62 J/K/mol
145.97 K | 85.73 J/K/mol
147.54 K | 86.49 J/K/mol
148 K | 86.67 J/K/mol
149.44 K | 87.35 J/K/mol
150.03 K | 87.59 J/K/mol
151.34 K | 88.17 J/K/mol
152.05 K | 88.52 J/K/mol
153.24 K | 89.05 J/K/mol
154.08 K | 89.42 J/K/mol
155.13 K | 89.89 J/K/mol
156.1 K | 90.34 J/K/mol
157.03 K | 90.77 J/K/mol
158.12 K | 91.27 J/K/mol
158.93 K | 91.65 J/K/mol
160.13 K | 92.24 J/K/mol
160.83 K | 92.53 J/K/mol
162.15 K | 93.18 J/K/mol
162.73 K | 93.45 J/K/mol
164.16 K | 94.14 J/K/mol
164.63 K | 94.35 J/K/mol
166.17 K | 95.08 J/K/mol
166.54 K | 95.25 J/K/mol
168.18 K | 96.07 J/K/mol
168.44 K | 96.2 J/K/mol
170.18 K | 97.05 J/K/mol
170.35 K | 97.13 J/K/mol
172.19 K | 98.05 J/K/mol
172.26 K | 98.07 J/K/mol
174.17 K | 99.06 J/K/mol
174.19 K | 99.05 J/K/mol
176.08 K | 100.02 J/K/mol
176.19 K | 100.08 J/K/mol
177.99 K | 101.03 J/K/mol
178.2 K | 101.13 J/K/mol
179.9 K | 102.04 J/K/mol
180.2 K | 102.17 J/K/mol
181.81 K | 103.07 J/K/mol
182.19 K | 103.23 J/K/mol
183.72 K | 104.11 J/K/mol
184.18 K | 104.31 J/K/mol
185.64 K | 105.14 J/K/mol
186.16 K | 105.44 J/K/mol
187.55 K | 106.25 J/K/mol
188.14 K | 106.57 J/K/mol
189.46 K | 107.37 J/K/mol
190.12 K | 107.71 J/K/mol
191.37 K | 108.48 J/K/mol
192.1 K | 108.92 J/K/mol
193.29 K | 109.62 J/K/mol
194.08 K | 110.15 J/K/mol
195.2 K | 110.84 J/K/mol
196.05 K | 111.36 J/K/mol
197.13 K | 112.05 J/K/mol
198.02 K | 112.6 J/K/mol
199.05 K | 113.28 J/K/mol
199.97 K | 113.87 J/K/mol
200.97 K | 114.62 J/K/mol
202 K | 115.31 J/K/mol
202.89 K | 116 J/K/mol
203.92 K | 116.79 J/K/mol
204.81 K | 117.51 J/K/mol
205.74 K | 118.31 J/K/mol
206.72 K | 119.13 J/K/mol
207.56 K | 119.91 J/K/mol
208.63 K | 120.93 J/K/mol
209.36 K | 121.66 J/K/mol
210.55 K | 122.71 J/K/mol
211.17 K | 123.38 J/K/mol
212.46 K | 124.68 J/K/mol
212.97 K | 125.27 J/K/mol
214.38 K | 126.63 J/K/mol
214.76 K | 127.11 J/K/mol
216.3 K | 128.63 J/K/mol
216.54 K | 128.94 J/K/mol
217 K | 129.41 J/K/mol
217.73 K | 130.26 J/K/mol
218.21 K | 130.69 J/K/mol
218.32 K | 130.87 J/K/mol
218.98 K | 131.5 J/K/mol
219.5 K | 132.12 J/K/mol
220.09 K | 132.7 J/K/mol
220.14 K | 132.72 J/K/mol
220.87 K | 133.52 J/K/mol
221.26 K | 133.99 J/K/mol
222.06 K | 134.69 J/K/mol
222.75 K | 135.43 J/K/mol
223.02 K | 135.78 J/K/mol
